# Reference: ChEMBL document CHEMBL3044945, “Synthesis of 1,3,5-trisubstituted pyrazoline nucleus containing compounds and screening for antimicrobial activity” (2012)
# What was measured:
# Type in all cases: functional
# [1] = tested on: Bacillus subtilis; assay: Antibacterial activity against Bacillus subtilis MTCC 441 at 1250 ug/ml after 48 hr by cup-plate method; settings: MTCC 441, 48 h, read-out: DIZ
# [2] = tested on: Bacillus subtilis; assay: Antibacterial activity against Bacillus subtilis MTCC 441 at 1000 ug/ml after 48 hr by cup-plate method; settings: MTCC 441, 48 h, read-out: DIZ
# [3] = tested on: Bacillus subtilis; assay: Antibacterial activity against Bacillus subtilis MTCC 441 at 750 ug/ml after 48 hr by cup-plate method; settings: MTCC 441, 48 h, read-out: DIZ
# [4] = tested on: Bacillus subtilis; assay: Antibacterial activity against Bacillus subtilis MTCC 441 at 500 ug/ml after 48 hr by cup-plate method; settings: MTCC 441, 48 h, read-out: DIZ
# [5] = tested on: Bacillus subtilis; assay: Antibacterial activity against Bacillus subtilis MTCC 441 at 250 ug/ml after 48 hr by cup-plate method; settings: MTCC 441, 48 h, read-out: DIZ
# [6] = tested on: Bacillus subtilis; assay: Antibacterial activity against Bacillus subtilis MTCC 441 at 100 ug/ml after 48 hr by cup-plate method; settings: MTCC 441, 48 h, read-out: DIZ
# [7] = tested on: Micrococcus luteus; assay: Antibacterial activity against Micrococcus luteus MTCC 1538 after 24 to 48 hr by tube dilution method
# [8] = tested on: Escherichia coli; assay: Antibacterial activity against Escherichia coli MTCC 1573 after 24 to 48 hr by tube dilution method
# [9] = tested on: Penicillium chrysogenum; assay: Antifungal activity against Penicillium chrysogenum MTCC 161 after 24 to 48 hr by tube dilution method
# [10] = tested on: Aspergillus niger; assay: Antifungal activity against Aspergillus niger MTCC 2546 after 24 to 48 hr by tube dilution method
# [11] = tested on: Pseudomonas fluorescens; assay: Antibacterial activity against Pseudomonas fluorescens MTCC 2421 after 24 to 48 hr by tube dilution method
# [12] = tested on: Bacillus pumilus; assay: Antibacterial activity against Bacillus pumilus MTCC 1456 after 24 to 48 hr by tube dilution method
# [13] = tested on: Pseudomonas aeruginosa; assay: Antibacterial activity against Pseudomonas aeruginosa MTCC 424 after 24 to 48 hr by tube dilution method
# [14] = tested on: Staphylococcus aureus; assay: Antibacterial activity against Staphylococcus aureus MTCC 1430 after 24 to 48 hr by tube dilution method
# [15] = tested on: Bacillus subtilis; assay: Antibacterial activity against Bacillus subtilis MTCC 441 after 24 to 48 hr by tube dilution method
# [16] = tested on: Penicillium chrysogenum; assay: Antifungal activity against Penicillium chrysogenum MTCC 161 at 1250 ug/ml after 48 hr by cup-plate method; settings: MTCC 161, 48 h, read-out: DIZ
# [17] = tested on: Penicillium chrysogenum; assay: Antifungal activity against Penicillium chrysogenum MTCC 161 at 1000 ug/ml after 48 hr by cup-plate method; settings: MTCC 161, 48 h, read-out: DIZ
# [18] = tested on: Penicillium chrysogenum; assay: Antifungal activity against Penicillium chrysogenum MTCC 161 at 750 ug/ml after 48 hr by cup-plate method; settings: MTCC 161, 48 h, read-out: DIZ
# [19] = tested on: Penicillium chrysogenum; assay: Antifungal activity against Penicillium chrysogenum MTCC 161 at 500 ug/ml after 48 hr by cup-plate method; settings: MTCC 161, 48 h, read-out: DIZ
# [20] = tested on: Aspergillus niger; assay: Antifungal activity against Aspergillus niger MTCC 2546 at 1250 ug/ml after 48 hr by cup-plate method; settings: MTCC 2546, 48 h, read-out: DIZ
# [21] = tested on: Aspergillus niger; assay: Antifungal activity against Aspergillus niger MTCC 2546 at 1000 ug/ml after 48 hr by cup-plate method; settings: MTCC 2546, 48 h, read-out: DIZ
# [22] = tested on: Aspergillus niger; assay: Antifungal activity against Aspergillus niger MTCC 2546 at 500 ug/ml after 48 hr by cup-plate method; settings: MTCC 2546, 48 h, read-out: DIZ
# [23] = tested on: Pseudomonas fluorescens; assay: Antibacterial activity against Pseudomonas fluorescens MTCC 2421 at 1250 ug/ml after 48 hr by cup-plate method; settings: MTCC 2421, 48 h, read-out: DIZ
# [24] = tested on: Pseudomonas fluorescens; assay: Antibacterial activity against Pseudomonas fluorescens MTCC 2421 at 1000 ug/ml after 48 hr by cup-plate method; settings: MTCC 2421, 48 h, read-out: DIZ
# [25] = tested on: Pseudomonas fluorescens; assay: Antibacterial activity against Pseudomonas fluorescens MTCC 2421 at 750 ug/ml after 48 hr by cup-plate method; settings: MTCC 2421, 48 h, read-out: DIZ
# [26] = tested on: Pseudomonas fluorescens; assay: Antibacterial activity against Pseudomonas fluorescens MTCC 2421 at 500 ug/ml after 48 hr by cup-plate method; settings: MTCC 2421, 48 h, read-out: DIZ
# [27] = tested on: Escherichia coli; assay: Antibacterial activity against Escherichia coli MTCC 1573 at 1250 ug/ml after 48 hr by cup-plate method; settings: MTCC 1573, 48 h, read-out: DIZ
structure (smiles),measurement,setting,value
O=[N+]([O-])c1ccc(C2CC(c3cccc4ccccc34)=NN2c2ccc([N+](=O)[O-])cc2[N+](=O)[O-])cc1 (configuration not stated),zone of inhibition at 1250 µg/mL,[1],16 mm
same,zone of inhibition at 1000 µg/mL,[2],15 mm
same,zone of inhibition at 750 µg/mL,[3],14 mm
same,zone of inhibition at 500 µg/mL,[4],13 mm
same,zone of inhibition at 250 µg/mL,[5],12 mm
same,zone of inhibition at 100 µg/mL,[6],11 mm
same,MIC,[7],150 µg/mL
same,MIC,[8],150 µg/mL
same,MIC,[9],50 µg/mL
same,MIC,[10],150 µg/mL
same,MIC,[11],150 µg/mL
same,MIC,[12],30 µg/mL
same,MIC,[13],50 µg/mL
same,MIC,[14],150 µg/mL
same,MIC,[15],50 µg/mL
same,zone of inhibition at 1250 µg/mL,[16],26 mm
same,zone of inhibition at 1000 µg/mL,[17],24 mm
same,zone of inhibition at 750 µg/mL,[18],22 mm
same,zone of inhibition at 500 µg/mL,[19],18 mm
same,zone of inhibition at 1250 µg/mL,[20],23 mm
same,zone of inhibition at 1000 µg/mL,[21],21 mm
same,zone of inhibition at 500 µg/mL,[22],16 mm
same,zone of inhibition at 1250 µg/mL,[23],25 mm
same,zone of inhibition at 1000 µg/mL,[24],22 mm
same,zone of inhibition at 750 µg/mL,[25],21 mm
same,zone of inhibition at 500 µg/mL,[26],18 mm
same,zone of inhibition at 1250 µg/mL,[27],17 mm
